Results published in PubChem BioAssay AID330 (DTP/NCI, 2004).
Values joined by “and” are separate entries in the source; they are usually repeats but may differ in a detail not shown here. Equal values may be shown once. Toxic doses and inconclusive results are not listed.

Test system: P388 leukemia ip, CD2F1 mice, survival T/C
Test: NCI In Vivo Anticancer Drug Screen. Data for tumor model P388 Leukemia (intraperitoneal) in CD2F1 (CDF1) mice
Conditions: endpoint: median survival time, higher = longer survival
How it was run: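 Mice carrying the transplanted tumor received test compound or vehicle. Survival was recorded in each group, and the value is the treated-group measurement divided by that of the vehicle-treated control group.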

[1] = dose: 50.0 mg/kg/injection, schedule: Q01DX005 (ip), vehicle: saline with Tween-80
[2] = dose: 100.0 mg/kg/injection, schedule: Q01DX005 (ip), vehicle: saline with Tween-80
[3] = dose: 200.0 mg/kg/injection, schedule: Q01DX005 (ip), vehicle: saline with Tween-80
[4] = dose: 12.5 mg/kg/injection, schedule: Q01DX009 (ip), vehicle: Klucel (hydroxypropylcellulose) (HPC)
[5] = dose: 50.0 mg/kg/injection, schedule: Q01DX009 (ip), vehicle: saline
[6] = dose: 100.0 mg/kg/injection, schedule: Q01DX009 (ip), vehicle: saline
[7] = dose: 200.0 mg/kg/injection, schedule: Q01DX009 (ip), vehicle: saline
[8] = dose: 50.0 mg/kg/injection, schedule: Q01DX009 (ip), vehicle: saline with Tween-80
[9] = dose: 100.0 mg/kg/injection, schedule: Q01DX009 (ip), vehicle: saline with Tween-80
[10] = dose: 200.0 mg/kg/injection, schedule: Q01DX009 (ip), vehicle: saline with Tween-80
[11] = dose: 60.0 mg/kg/injection, schedule: Q01DX005 (ip), vehicle: saline with Tween-80
[12] = dose: 120.0 mg/kg/injection, schedule: Q01DX005 (ip), vehicle: saline with Tween-80

In the case of `COc1cccc2c1C(=O)c1c(O)c3c(c(O)c1C2=O)CC(O)(/C(C)=N/NS(=O)(=O)c1ccc(C)cc1)CC3OC1CC(N)C(O)C(C)O1` (stereo not drawn), the T/C (dose: 0.78 mg/kg/injection, schedule: Q01DX009 (ip), vehicle: water) is reported as 118 % of control, the T/C (dose: 1.56 mg/kg/injection, schedule: Q01DX009 (ip), vehicle: water) is reported as 113 % of control and the T/C (dose: 12.5 mg/kg/injection, schedule: Q01DX009 (ip), vehicle: water) is reported as 153 % of control. For the same molecule, the T/C (dose: 25.0 mg/kg/injection, schedule: Q01DX009 (ip), vehicle: water) was 179 % of control.

With `CC(C)=CCSc1ccccc1` the T/C (dose: 100.0 mg/kg/injection, schedule: Q04DX002 (ip), vehicle: Klucel (hydroxypropylcellulose) (HPC)) was 104 % of control, the T/C (dose: 200.0 mg/kg/injection, schedule: Q04DX002 (ip), vehicle: Klucel (hydroxypropylcellulose) (HPC)) was 106 % of control and the T/C (dose: 400.0 mg/kg/injection, schedule: Q04DX002 (ip), vehicle: Klucel (hydroxypropylcellulose) (HPC)) was 109 % of control.

In the case of `CSc1c2ccncc2c(C)c2c1[nH]c1ccccc12`, the T/C (dose: 6.25 mg/kg/injection, schedule: Q04DX002 (ip), vehicle: distilled water + Tween-80) is reported as 95 % of control, the T/C (dose: 12.5 mg/kg/injection, schedule: Q04DX002 (ip), vehicle: distilled water + Tween-80) is reported as 94 % of control and the T/C (dose: 25.0 mg/kg/injection, schedule: Q04DX002 (ip), vehicle: distilled water + Tween-80) is reported as 88 % of control. For the same molecule, the T/C (dose: 50.0 mg/kg/injection, schedule: Q04DX002 (ip), vehicle: distilled water + Tween-80) was 89 % of control, the T/C (dose: 100.0 mg/kg/injection, schedule: Q04DX002 (ip), vehicle: distilled water + Tween-80) was 95 % of control and the T/C (dose: 200.0 mg/kg/injection, schedule: Q04DX002 (ip), vehicle: distilled water + Tween-80) was 98 % of control.

`COC(=O)C1=C(C(=O)OC)C2C3CC4C(C13)C42` was tested, and the T/C (dose: 9.4 mg/kg/injection, schedule: Q01DX009 (none), vehicle: saline) was 105 % of control, the T/C (dose: 18.75 mg/kg/injection, schedule: Q01DX009 (none), vehicle: saline) was 106 % of control and the T/C (dose: 37.5 mg/kg/injection, schedule: Q01DX009 (none), vehicle: saline) was 105 % of control. For the same molecule, the T/C (dose: 75.0 mg/kg/injection, schedule: Q01DX009 (none), vehicle: saline) was 99 % of control.

`CCc1cccc(C)c1NC(=O)CCc1nnc(N)n1N` was tested, and the T/C [1] was 104 % of control, the T/C [2] was 107 % of control and the T/C [3] was 94 % of control.

`CP1(=S)C=C(NC2CCCCC2)CC1` (stereo not drawn) was tested, and the T/C [4] was 99 % of control, the T/C (dose: 25.0 mg/kg/injection, schedule: Q01DX009 (ip), vehicle: Klucel (hydroxypropylcellulose) (HPC)) was 107 % of control and the T/C (dose: 50.0 mg/kg/injection, schedule: Q01DX009 (ip), vehicle: Klucel (hydroxypropylcellulose) (HPC)) was 110 % of control. For the same molecule, the T/C (dose: 100.0 mg/kg/injection, schedule: Q01DX009 (ip), vehicle: Klucel (hydroxypropylcellulose) (HPC)) was 92 % of control and the T/C (dose: 200.0 mg/kg/injection, schedule: Q01DX009 (ip), vehicle: Klucel (hydroxypropylcellulose) (HPC)) was 95 % of control.

With `O=C(N/N=C\c1ccc(O)cc1)C(=O)N/N=C\c1ccc(O)cc1` the T/C [5] was 87 % of control, the T/C [6] was 92 % of control and the T/C [7] was 96 % of control.

`CC(C)=Cn1ccccc1=O` was tested, and the T/C (dose: 25.0 mg/kg/injection, schedule: Q01DX001 (ip), vehicle: saline) was 104 % of control and 108 % of control, the T/C (dose: 50.0 mg/kg/injection, schedule: Q01DX001 (ip), vehicle: saline) was 99 % of control and 98 % of control and the T/C (dose: 100.0 mg/kg/injection, schedule: Q01DX001 (ip), vehicle: saline) was 120 % of control and 95 % of control and 98 % of control. For the same molecule, the T/C (dose: 200.0 mg/kg/injection, schedule: Q01DX001 (ip), vehicle: saline) was 94 % of control and the T/C (dose: 400.0 mg/kg/injection, schedule: Q01DX001 (ip), vehicle: saline) was 108 % of control.

`CSC1=NN(C(C)=O)C(c2ccccn2)S1` (stereo not drawn) was tested, and the T/C (dose: 50.0 mg/kg/injection, schedule: Q01DX005 (ip), vehicle: Klucel (hydroxypropylcellulose) (HPC)) was 100 % of control, the T/C (dose: 100.0 mg/kg/injection, schedule: Q01DX005 (ip), vehicle: Klucel (hydroxypropylcellulose) (HPC)) was 100 % of control and the T/C (dose: 200.0 mg/kg/injection, schedule: Q01DX005 (ip), vehicle: Klucel (hydroxypropylcellulose) (HPC)) was 101 % of control.

For `COc1nc2cc3c(cc2n2cccc12)oc1ccccc13`, the T/C (dose: 25.0 mg/kg/injection, schedule: Q01DX005 (ip), vehicle: saline with Tween-80) was 95 % of control, the T/C [1] was 96 % of control and the T/C [2] was 102 % of control.

`O=C(O)P(=O)(O)O` was tested, and the T/C (dose: 50.0 mg/kg/injection, schedule: Q01DX009 (ip), vehicle: water) was 95 % of control, the T/C (dose: 100.0 mg/kg/injection, schedule: Q01DX009 (ip), vehicle: water) was 103 % of control and the T/C (dose: 200.0 mg/kg/injection, schedule: Q01DX009 (ip), vehicle: water) was 100 % of control.

In the case of `S=c1c2ccccc2c(=S)n(-c2ccccc2)n1-c1ccccc1`, the T/C (dose: 60.0 mg/kg/injection, schedule: Q01DX005 (ip), vehicle: Klucel (hydroxypropylcellulose) (HPC)) is reported as 91 % of control, the T/C (dose: 120.0 mg/kg/injection, schedule: Q01DX005 (ip), vehicle: Klucel (hydroxypropylcellulose) (HPC)) is reported as 94 % of control and the T/C (dose: 240.0 mg/kg/injection, schedule: Q01DX005 (ip), vehicle: Klucel (hydroxypropylcellulose) (HPC)) is reported as 92 % of control.

In the case of `C=CCN1C(=O)CS/C1=N\NC(=O)Cc1nc2ccccc2[nH]1`, the T/C (dose: 100.0 mg/kg/injection, schedule: Q01DX001 (ip), vehicle: Klucel (hydroxypropylcellulose) (HPC)) is reported as 101 % of control, the T/C (dose: 200.0 mg/kg/injection, schedule: Q01DX001 (ip), vehicle: Klucel (hydroxypropylcellulose) (HPC)) is reported as 105 % of control and the T/C (dose: 400.0 mg/kg/injection, schedule: Q01DX001 (ip), vehicle: Klucel (hydroxypropylcellulose) (HPC)) is reported as 92 % of control.

With `c1ccc2c(-c3nc4ccccc4c4ccccc34)nccc2c1` the T/C (dose: 100.0 mg/kg/injection, schedule: Q01DX001 (ip), vehicle: saline with Tween-80) was 92 % of control, the T/C (dose: 200.0 mg/kg/injection, schedule: Q01DX001 (ip), vehicle: saline with Tween-80) was 92 % of control and the T/C (dose: 400.0 mg/kg/injection, schedule: Q01DX001 (ip), vehicle: saline with Tween-80) was 99 % of control.

In the case of `NC(=S)COc1ccccc1`, the T/C [8] is reported as 105 % of control, the T/C [9] is reported as 101 % of control and the T/C [10] is reported as 105 % of control.

In the case of `CC(C)(C)OC(=O)NC(Cc1ccc(OCc2ccccc2)cc1)C(=O)O` (stereo not drawn), the T/C [1] is reported as 104 % of control, the T/C [2] is reported as 106 % of control and the T/C [3] is reported as 97 % of control.

`O=C(COc1ccccc1)OC(=O)COc1ccccc1` was tested, and the T/C (dose: 25.0 mg/kg/injection, schedule: Q01DX009 (ip), vehicle: other) was 109 % of control, the T/C (dose: 50.0 mg/kg/injection, schedule: Q01DX009 (ip), vehicle: other) was 100 % of control and the T/C (dose: 100.0 mg/kg/injection, schedule: Q01DX009 (ip), vehicle: other) was 93 % of control. The T/C (dose: 200.0 mg/kg/injection, schedule: Q01DX009 (ip), vehicle: other) was 98 % of control.

With `Cc1cc(NS(=O)(=O)c2ccc(N=Nc3cc(N=Nc4ccc(S(=O)(=O)Nc5cc(C)nc(C)n5)cc4)c4c(NC(=O)C(Cl)Cl)cccc4c3OC(=O)C(Cl)Cl)cc2)nc(C)n1` (tested in a mixture with another compound) the T/C (dose: 12.5 mg/kg/injection, schedule: Q01DX009 (ip), vehicle: saline with Tween-80) was 113 % of control, the T/C (dose: 25.0 mg/kg/injection, schedule: Q01DX009 (ip), vehicle: saline with Tween-80) was 117 % of control and the T/C [8] was 106 % of control [middle of 4 runs]. For the same molecule, the T/C [5] was 108 % of control [middle of 4 runs], the T/C [9] was 99 % of control and 105 % of control and 107 % of control and the T/C [6] was 111 % of control and 115 % of control and 118 % of control. For the same molecule, the T/C [10] was 91 % of control and 95 % of control and the T/C [7] was 99 % of control.

`CC(=O)Nc1ccc(/C=C/c2csnn2)cc1` was tested, and the T/C [11] was 92 % of control, the T/C [12] was 87 % of control and the T/C (dose: 240.0 mg/kg/injection, schedule: Q01DX005 (ip), vehicle: saline with Tween-80) was 92 % of control.

`C=C1C=[n+]2ccccc2=N1` was tested, and the T/C (dose: 25.0 mg/kg/injection, schedule: Q01DX009 (ip), vehicle: saline) was 93 % of control and the T/C [5] was 96 % of control.

In the case of `COC(=O)c1nc(N)nc(C(=O)OC)c1C(=O)C(C)(C)C`, the T/C [11] is reported as 96 % of control and the T/C [12] is reported as 96 % of control.

`ClCc1ccc(Oc2ccc(CCl)cc2)cc1` was tested, and the T/C [4] was 120 % of control.

For `CCCCN(CCCC)C(=N)c1ccnc2ccccc12`, the T/C (dose: 6.25 mg/kg/injection, schedule: Q01DX005 (ip), vehicle: saline) was 95 % of control, the T/C (dose: 12.5 mg/kg/injection, schedule: Q01DX005 (ip), vehicle: saline) was 97 % of control and the T/C (dose: 25.0 mg/kg/injection, schedule: Q01DX005 (ip), vehicle: saline) was 97 % of control.

`N#Cc1c(-c2ccccc2)c(-c2ccccc2)n(-c2ccccc2)c1N` was tested, and the T/C [8] was 104 % of control, the T/C [9] was 104 % of control and the T/C [10] was 104 % of control.
